# Source: patent US20250359549A1, “PESTICIDE BACTERICIDAL COMPOSITION, WATER DISPERSIBLE GRANULE AND PREPARATION METHOD AND USE THEREOF” (QINGDAO RAINBOW CHEMICAL CO., LTD., priority 2023, published 2025)
# Where two headings read alike, the source gives them in different places.
# Columns and labels:
# [1] = 20° C., cited from earlier work
# plasmopara viticola = experiment: Indoor toxicity measurement, leaf disk method; format: in vivo; details: grape downy mildew; for EC50: Plasmopara viticola, foliar, read-out: Measured EC50 value (X2)
# Procedure: After the pesticide solution was naturally dried in air, each treated leaf disc with an upward back was placed in a culture dish, and absorbent paper moistened with the same pesticide solution was placed at the bottom of the culture dish. 15 leaf discs were placed in a concentric circle for each dish, with 4 repetitions for 1 dish treated. Blank control was treated with a 0.1% Tween-80 aqueous solution. Inoculation was performed after 24 h of pesticide treatment. […] The spore sac suspension was cultured with an artificial climate chamber. […] The severity of the disease was determined according to the percentage of the diseased area on the leaf disc to the leaf disc area, the number of diseased leaf discs and the severity of the disease were recorded, and the disease index and prevention and control effect were calculated according to the formula. […] The toxicity regression curve equation y=a+bx and the correlation coefficient r were obtained, and the EC50 of each single agent and different proportions of mixtures was calculated based on the regression equation. Based on the EC50 values of each single agent and compounded agent, the synergistic coefficients (SR) of each compounded agent were calculated according to Wadley method, and the compounding effect was evaluated by using SR value. […] In equations (1) and (2), SR is the synergistic coefficient of the mixture; X1 is the theoretical EC50 value of the mixture, unit: milligrams per liter (mg/L); X2 is the measured EC50 value of the mixture, unit: milligrams per liter (mg/L). […] X1′ is the theoretical value of the mixture, unit: milligrams per liter (mg/L); X2 is the measured value of the mixture, unit: milligrams per liter (mg/L). […] Similarly, the synergistic coefficients SRs of chlorothalonil and picoxystrobin (A+C)+tebuconazole (B) (referred to as (A+C)+B), tebuconazole and picoxystrobin (B+C)+chlorothalonil (A) (referred to as (B+C)+A) can be calculated.
# [2] = 25° C.; cited from earlier work
# [3] = cited from earlier work
Compound,solubility in an organic solvent ([1]; dichloromethane) [mg/mL],solubility in an organic solvent ([1]; hexane) [mg/mL],EC50 (plasmopara viticola) [µg/mL],Measured EC50 value (X2) (plasmopara viticola) [µg/mL],distribution coefficient log P [2],Hydrolysis ([3]; pH>9),"Stability ([3]; storage at room temperature, weak alkaline and acidic aqueous solutions, UV radiation)"
CC(C)(C)C(O)(CCc1ccc(Cl)cc1)Cn1cncn1 (racemic) [Tebuconazole],> 200,< 0.1,3.29,–,–,–,–
CO/C=C(/C(=O)OC)c1ccccc1COc1cccc(C(F)(F)F)n1 [Picoxystrobin],–,–,–,2.48,–,–,–
N#Cc1c(Cl)c(Cl)c(Cl)c(C#N)c1Cl [Chlorothalonil],–,–,24.6,–,2.92,slowly hydrolyzed,"stably stored at room temperature, and stable to weak alkaline and acidic aqueous solutions and UV radiation"
